# Test results reported in patent US7125844B2, “Dab9 derivatives of lipopeptide antibiotics and methods of making and using the same” (priority 2002, dated 2006).
# System: methicillin sensitive Staphylococcus aureus (MSSA; Smith strain)
# Assay: Mouse protection model: mice infected intraperitoneally with MSSA, dosed subcutaneously
# Assay type: in vivo
# Settings: for Number Dead: 10 mice
# Description: An overnight culture of methicillin sensitive Staphylococcus aureus (“MSSA”; Smith strain) grown to stationary phase in brain heart infusion broth (BHI) was diluted 1000-fold and maintained at 37° C. in a shaking incubator. Approximately two hours later the culture was centrifuged and the pellet was washed with sterile phosphate-buffered saline (“PBS”). The washed pellet was then reconstituted in Mueller-Hinton Broth (“MHB”) to achieve the desired density of bacteria. A portion of the inoculum was plated on blood agar plates to determine colony-forming units (CFU) per milliliter.
# Compound IB-1272 was formulated immediately before dosing in aqueous vehicle containing 5% dextrose. Compound IB-756 (Aspartocin) was formulated in PBS or 5% dextrose and used as a positive control.
# Immunocompetent Swiss Webster Mice from Simonsen Laboratories, Gilroy, Calif., received via intraperitoneal injection a single inoculum (0.5 ml) containing an estimated 4.0×10^7 CFU of MSSA Smith strain. The day of inoculation was designated study day 0. Immediately after infection, mice were treated subcutaneously with a single dose of vehicle alone, IB-1272 (2, 4, or 8 mg/kg), IB-756 (2.5 or 5 mg/kg in PBS), or IB-756 (2.5 or 5 mg/kg in 5% dextrose).
# [1] = 2.0 mg/kg s.c. single dose (5% dextrose vehicle)
# [2] = 4 mg/kg s.c. single dose (5% dextrose vehicle)
# [3] = 8 mg/kg s.c. single dose (5% dextrose vehicle)
# [4] = Table 1, no unit or model given
structure (smiles),measurement,setting,value
"CC(C)CCCCCCCC/C=C\CC(=O)N[C@@H](CC(=O)O)C(=O)N[C@@H]1C(=O)N2CCCC[C@@H]2C(=O)N[C@@H]([C@H](C)C(=O)O)C(=O)N[C@@H](CC(=O)O)C(=O)NCC(=O)N[C@@H](CC(=O)O)C(=O)NCC(=O)N[C@H]([C@@H](C)NC(=O)CN)C(=O)N[C@@H](C(C)C)C(=O)N2CCC[C@H]2C(=O)N[C@@H]1C [IB-1272, NatC15-aspartocin(Dab^9-N-glycyl)]",Percent Mortality,[1],50%
same,Percent Survival,[1],50%
same,Number Dead,[1],5
same,Percent Mortality,[2],0%
same,Percent Survival,[2],100%
same,Number Dead,[2],0
same,Percent Mortality,[3],0%
same,Percent Survival,[3],100%
same,Number Dead,[3],0
same,ED50,[4],1.8 mg/kg
same,ED50,"subcutaneously administered, immunocompetent mice challenged intraperitoneally with MSSA Smith strain",< 2.0 mg/kg
"CC(C)CCCCCCCC/C=C\CC(=O)N[C@@H](CC(=O)O)C(=O)N[C@@H]1C(=O)N2CCCC[C@@H]2C(=O)N[C@@H]([C@H](C)C(=O)O)C(=O)N[C@@H](CC(=O)O)C(=O)NCC(=O)N[C@@H](CC(=O)O)C(=O)NCC(=O)N[C@H]([C@@H](C)NC(=O)[C@@H](N)CO)C(=O)N[C@@H](C(C)C)C(=O)N2CCC[C@H]2C(=O)N[C@@H]1C [IB-1281, NatC15-aspartocin(Dab^9-N-L-seryl)]",ED50,[4],14.7 mg/kg
"CC(C)CCCCCCCC/C=C\CC(=O)N[C@@H](CC(=O)O)C(=O)N[C@@H]1C(=O)N2CCCC[C@@H]2C(=O)N[C@@H]([C@H](C)C(=O)O)C(=O)N[C@@H](CC(=O)O)C(=O)NCC(=O)N[C@@H](CC(=O)O)C(=O)NCC(=O)N[C@H]([C@@H](C)NC(=O)[C@H](C)N)C(=O)N[C@@H](C(C)C)C(=O)N2CCC[C@H]2C(=O)N[C@@H]1C [IB-1275, NatC15-aspartocin(Dab^9-N-L-alanyl)]",ED50,[4],15.7 mg/kg
"CC(C)CCCCCCCC/C=C\CC(=O)N[C@@H](CC(=O)O)C(=O)N[C@@H]1C(=O)N2CCCC[C@@H]2C(=O)N[C@@H]([C@H](C)C(=O)O)C(=O)N[C@@H](CC(=O)O)C(=O)NCC(=O)N[C@@H](CC(=O)O)C(=O)NCC(=O)N[C@H]([C@@H](C)NC(=O)[C@@H](C)N)C(=O)N[C@@H](C(C)C)C(=O)N2CCC[C@H]2C(=O)N[C@@H]1C [IB-1279, NatC15-aspartocin(Dab^9-N-D-alanyl)]",ED50,[4],6 mg/kg
